Assay results as given in patent US20110251128A1, “THYMOSIN Beta4 PEPTIDES PROMOTE TISSUE REGENERATION” (The Board of Regents of the University of Texas System, priority 2010, published 2011).
Entries after “also recorded” stand apart in the source; their conditions may differ. Like-named read-outs stand apart in the source and are kept apart here. Residues, ends and D or L forms follow the SMILES beside them. No end group written: not given here.

Legend:
[1] = tested on: C57BL/6J male mice after coronary ligation; experiment: Myocardial infarction by LAD coronary ligation in adult mice: echocardiography, scar volume, myocyte size; assay type: in vivo, mouse; conditions: for side effects: mouse model; for post-ischemic cardiac function, in words: adult mice after coronary ligation
Source text: (§1) Animals and Surgical procedures. Mice: Myocardial infarctions were produced in seventy C57BL/6J male mice at 16 weeks of age (25-30 g) by ligation of the left anterior descending (LAD) coronary artery as described (Garner et al., 2003). All animal protocols were reviewed and approved by the University of Texas Southwestern Medical School Institutional Animal Care Advisory Committee and were in compliance with the rules governing animal use as published by the NIH. Mice were sedated in an isoflurane chamber (5%) for 60 seconds until self-designed coaxial mask could be safely applied. The mask supplied continuous isoflurane (2.0%) and oxygen (98.0%) under positive pressure from a Harvard small animal respirator throughout the procedures. Immediately after ligation mice were injected with 200 ng of peptide in […] or […] PBS in collagen intracardially in the infarction border, and with […] PBS intraperitoneally as described (Bock-Marquette et al., 2004). Intraperitoneal injections were repeated every three days after ligation. Effective doses of the peptides were calculated based on optimal in vitro cell migration effect and on biodistribution calculations of full length TB4 (Mora et al., 1997). The inventors administered buprenorphine (0.05 mg/kg) for post-operative pain control. Hearts were removed 1, 14 and 21 days after ligation and processed for further investigations.
Analysis of cardiac function by echocardiography: Echocardiograms to assess systolic function were performed using M-mode and 2-dimensional measurements as described previously (Garner et al., 2003). The measurements represented the average of six selected cardiac cycles from at least two separate scans performed in random-blind fashion with papillary muscles used as a point of reference for consistency in level of scan. End diastole was defined as the maximal left ventricle (LV) diastolic dimension and end systole was defined as the peak of posterior wall motion. Single outliers in each group were omitted for statistical analysis. Fractional shortening (FS), a surrogate of systolic function, was calculated from LV dimensions as follows: FS=[(EDD−ESD)/EDD]×100%. Ejection fraction (EF) was calculated as follows: EF=[(edd^3−esd^3)/edd^3]×100%. EDD, end diastolic dimension; ESD, end systolic dimension.
Calculation of scar volume and myocyte size: Scar volume was calculated after Masson's trichrome staining in six sections through the heart of each mouse using Openlab 3.03 software (Improvision) similar to previously described (Bock-Marquette et al., 2004). Percent area of collagen deposition was measured on each section in blinded fashion and averaged for each mouse.

[2] = tested on: adult infarcted pigs; experiment: Ischemia reperfusion (acute myocardial infarction) in pigs with retroinfusion of peptides; assay type: in vivo, pig; conditions: pig model
Method: Pigs: German pigs were purchased from the animal research department of the Ludwig-Maximilians-University (Oberschleissheim, Germany). Animal care and all experimental procedures were performed in accordance to the German and NIH animal legislation guidelines and were approved by the Bavarian Animal Care and Use Committee (AZ 55.2-1-54-2531-26/09). All animal experiments were conducted at the Walter Brendel Centre of Experimental Medicine, University of Munich.
Ischemia reperfusion experiments: Pigs (n=5/experimental group) were anesthetized and instrumented as described previously (Hinkel et al., 2008). Briefly, a balloon was placed in the left anterior descending artery (LAD) distal to the bifurcation of the first diagonal branch and inflated for 60 min. Correct localization of the coronary occlusion and patency of the first diagonal branch were ensured by injection fluoroscopy. Regional application of TB4 peptides or saline solution was performed via selective pressure regulated retroinfusion for 10 min into the anterior interventricular vein (AIV) draining the LAD-perfused myocardium (Kupatt et al., 2005).
Global myocardial function: At day 0 before ischemia induction and after 24 h of reperfusion myocardial function was obtained via Millar pressure tip catheter. Therefore the Millar pressure tip catheter was placed in the left ventricle and left ventricular pressure was recorded for off-line analysis.
Regional myocardial function: 24 hours after induction of ischemia, sternotomy was performed and ultrasonic crystals were placed subendocardial into the area at risk, the infracted area as well as into the Cx perfusion area in a standardized manner. Subendocardial segment shortening (SES) was assessed under resting heart rate as well as at 120 and 150 beats/min atrial pacing (for 1 min/each).
Infarct size and local inflammation: For assessment of infarct size methylene blue was injected in the left ventricle for negative staining of the AAR and tetrazolium red was applied into the LAD for viability staining in the infracted area. Thereafter, left ventricle was cut into slices (5 mm thick), and subjected to digital photography. Planimetry of different slices was conducted via ImageJ for assessment of infarct size in % of AAR. Tissue samples from infarct, area at risk and non-ischemic control were harvested for leukocyte recruitment. Myeloperoxidase assays were performed as previously described (Kupatt et al., 2005).

[3] = tested on: myocardial cells; experiment: Beating frequency of myocardial cells in embryonic cardiac explants on collagen gel; assay type: cell-based, mouse; conditions: for frequency of myocardial beating: 300 ng peptide or 100 ng TB4, normalized to PBS and TB4 controls (TB4 = 100.00); for myocyte beating, effect in words: compared with full-length TB4 or other constructs
Method: (§2) In vitro embryonic cardiac cell migration assay. The outflow tract of the heart was dissected from E11.5 wild-type mouse embryos and placed on rat-tail collagen matrix (Roche) endothelial layer facing down as described (Bock-Marquette et al., 2004; Runyan and Markwald, 1983). After 10 h of attachment, three independent explants were incubated with 300 ng of peptide #1-17, 100 ng of TB4, or 3 μl PBS in […] OPTIMEM medium (Invitrogen/Gibco) respectively. Medium and protein were changed every two days. To monitor migration distance photos were taken daily using Nikon DXM1200F microscope at 4× magnification. Cell migration distance was quantified by ImageJ software (http at rsb.info.nih.gov/ij/) in three separate explants and three measurements for each treatment respectively. Beating frequency of myocardial cells was counted three times at 7-15 days of treatment. Calculations were normalized to PBS and TB4 treated positive and negative controls. After 15 days at 37° C. in 5% CO2, explants were fixed in 4% paraformaldehyde in PBS for 10 min at room temperature. Explants were stored at 4° C. in PBS for further immunocytochemical investigations.

[4] = tested on: embryonic cardiac endothelial cells; experiment: In vitro embryonic cardiac cell migration assay on collagen gel (outflow tract explants); assay type: cell-based, mouse; design: unit not given here; conditions: 300 ng peptide or 100 ng TB4 in medium; E11.5 outflow tract explants; results normalized to PBS control (TB4 = 100.00)
Method: as §2

[5] = Yang et al., 2004, cited from earlier work
[6] = tested on: mature coronary vessels; experiment: Immunohistochemistry, smooth muscle α-actin positive vessels at infarction border zone; assay type: in vivo, mouse; conditions: two weeks after treatment, compared to PBS (FIG. 10)
Source text: as §1
Immunohistochemistry. Adult mouse cardiac tissue was fixed in 4% paraformaldehyde and sections were analyzed by immunohistochemistry. Hearts were sectioned at eight levels from the base to the apex. Serial sections were immunostained with primary antibodies against Pecam-1 and Wt-1 (1:50) (Santa Cruz), Smooth muscle a-actin (1:220) (Sigma), Sarcomeric a-actinin (1:200) (Sigma), Connexin43 (1:200) (Invitrogen), pS368-Connexin43 (1:200) (Cell Signaling Technology) as recommended by the manufacturer. Terminal deoxynucleotidyl transferase dUTP nick end labeling (TUNEL) assay was performed using In Situ Cell Detection kit (Roche). Number of sm a-actin positive capillaries and Wt-1 positive cells were counted at the infarction border zone in high power photographs at all levels of the sections in three peptide, TB4 and PBS treated hearts respectively.

[7] = tested on: Wt-1 positive cardiac progenitors; experiment: Immunohistochemistry, Wt-1 positive progenitor cells at infarction border; assay type: in vivo, mouse; conditions: infarction border, two weeks after injections (FIG. 11)
Source text: Animals and Surgical procedures. Mice: Myocardial infarctions were produced in seventy C57BL/6J male mice at 16 weeks of age (25-30 g) by ligation of the left anterior descending (LAD) coronary artery as described (Garner et al., 2003). All animal protocols were reviewed and approved by the University of Texas Southwestern Medical School Institutional Animal Care Advisory Committee and were in compliance with the rules governing animal use as published by the NIH. Mice were sedated in an isoflurane chamber (5%) for 60 seconds until self-designed coaxial mask could be safely applied. The mask supplied continuous isoflurane (2.0%) and oxygen (98.0%) under positive pressure from a Harvard small animal respirator throughout the procedures. […] Effective doses of the peptides were calculated based on optimal in vitro cell migration effect and on biodistribution calculations of full length TB4 (Mora et al., 1997). […]
Immunohistochemistry. Adult mouse cardiac tissue was fixed in 4% paraformaldehyde and sections were analyzed by immunohistochemistry. […] Number of sm a-actin positive capillaries and Wt-1 positive cells were counted at the infarction border zone in high power photographs at all levels of the sections in three peptide, TB4 and PBS treated hearts respectively.

Compound	frequency of myocardial beating [3]	myocyte beating, effect in words [3]	endothelial cell migration distance [4]	other results
C[C@H](N)C(=O)NCC(=O)N[C@@H](CCC(=O)O)C(=O)N[C@@H](CO)C(=O)O [#17, AGES] (H-AGES-OH)	–	–	–	side effects [1]: did not observe any major side effects; side effects [2]: did not observe any major side effects
#2: acetylated N-terminal variable domain with addition of Met6 (Ac-SDKPDM-OH; UniProt P62328 2-7, looked up, fragment)	10.65+/−1.15 beats/75 sec	inhibit myocyte beating in vitro	–	–
#4: de-acetylated form of the N-terminal variable domain (of #1) (SDKP; Thymosin beta-4; UniProt P62328 2-5, looked up, fragment)	86.88+/−1.15 beats/75 sec	–	154	–
#5: de-acetylated form of the N-terminal variable domain with Met6 (of #2) (SDKPDM; Thymosin beta-4; UniProt P62328 2-7, looked up, fragment)	66.39+/−3.46 beats/75 sec	–	139	–
Ac-SDKP (Ac-SDKP-OH; UniProt P62328 2-5, looked up, fragment) [#1, acetylated N-terminal variable domain of TB4]	45.08+/−2.31 beats/75 sec	inhibit myocyte beating in vitro	116	fibrosis, inflammation and coronary vessel growth / angiogenesis [5]: highly angiogenic; post-ischemic cardiac (global) function [5]: did not affect post-ischemic cardiac function; also recorded: did not aid global function; fibrosis, inflammation and coronary vessel growth / angiogenesis ([5]; listed as Ac-SDKP): positive influence; post-ischemic cardiac (global) function ([5]; listed as Ac-SDKP): does not aid post-ischemic cardiac function
Ac-SDKPDMox [#3]	17.21+/−1.00 beats/75 sec	–	70.7	post-ischemic cardiac function, in words [1]: does not alter cardiac function; post-ischemic cardiac function, in words ([1]; listed as Ac-SDKPDMox): failed to aid cardiac function; number of mature coronary vessels [6]: fails to alter the number of mature coronary vessels; number of mature coronary vessels ([6]; listed as Ac-SDKPDMox): did not initiate vessel growth; Wt-1 positive progenitor cells [7]: fails to increase Wt-1 positive progenitor cells
LKKTET [#8]	87.02+/−16.17 beats/75 sec	resembled myocyte fibrillation; also recorded: increases beating frequency	13	–
LKKTETQEKNPLPSKETIEQEKQAGES [#14]	–	–	–	side effects [1]: did not observe any major side effects; side effects [2]: did not observe any major side effects
